Laboratory results reported in US11707467B2, “(17-ß)-3-oxoandrost-4-en-17YL tridecanoate compositions and methods of their preparation and use” (Lipocine Inc., priority 2014, dated 2023).

Assays:
[1] = Pharmacokinetic study: % responders by serum testosterone Cavg and Cmax; assay type: in vivo, human
Description: Some of the dosage forms of compositions described herein comprising or prepared from substantially pure (17-β)-3-Oxoandrost-4-en-17-yl tridecanoate were administered to human subjects as a single dose of the esters to subjects. Serial blood samples were drawn at predetermined time (e.g., t=0, 12, 24, etc.) and analyzed for testosterone concentration using a validated HPLC-MS/MS analytical method. The Cmax, Cavg t1-t2, Tmax and AUCt1-t2 are calculated for testosterone in the serum of the subjects. Pharmacokinetic and statistical analyses are performed on the data obtained from the subjects. The pharmacokinetic parameters are defined as follows: • AUCt1-t2: The area under the serum concentration versus time curve, from time t1 (in hours) to time t2 (in hours) measurable concentration of the administered drug, as calculated by the linear trapezoidal method. […] This represents the average serum testosterone level over a period starting from time 0 (zero) hours to […] post-administration of dose. It should also be noted that Cavg t0-t24 is also referred to as simply “Cavg” in this invention. • Cavg t0-t12: The average serum concentration of testosterone obtained by dividing the […] value by 12. This represents the average serum testosterone level over a period starting from time 0 (zero) hours to […] post-administration of dose. • Cavg t12-t24: The average serum concentration of testosterone obtained by dividing the AUCt12-t24 value by 12. This represents the average serum testosterone level over the second half of the 24-hours post-administration of dose period; i.e., from a period starting from time 12 hours to time 24 hours post-administration of dose.

male and female mice = conditions: cited from earlier work
[2] = tested on: developing oocytes in female mice; conditions: cited from earlier work
[3] = starting 100 (±50) mg T equivalent QD or BID, same formulation
[4] = starting 300 (±50) mg T equivalent QD, 12-20% API, 55-70% lipophilic additive, 12-20% hydrophilic additive
[5] = starting 350 (±100) mg T equivalent BID, same formulation
[6] = starting 1000 (±200) mg T equivalent QD or BID, same formulation

Row | Compound | % Responders with Cave t0-t24 (ng/dL) 300-1140 [1, 3] | % Responders with Cmax (ng/dL) 1800-2500 [1, 3] | % Responders with Cmax (ng/dL) >2500 [1, 3] | % Responders with Cmax (ng/dL) ≤1500 [1, 3] | % Responders with Cave t0-t24 (ng/dL) 300-1140 [1, 4] | % Responders with Cmax (ng/dL) 1800-2500 [1, 4] | % Responders with Cmax (ng/dL) >2500 [1, 4] | % Responders with Cmax (ng/dL) ≤1500 [1, 4] | % Responders with Cave t0-t24 (ng/dL) 300-1140 [1, 5] | % Responders with Cmax (ng/dL) 1800-2500 [1, 5] | % Responders with Cmax (ng/dL) >2500 [1, 5] | % Responders with Cmax (ng/dL) ≤1500 [1, 5] | % Responders with Cave t0-t24 (ng/dL) 300-1140 [1, 6] | % Responders with Cmax (ng/dL) 1800-2500 [1, 6] | % Responders with Cmax (ng/dL) >2500 [1, 6] | % Responders with Cmax (ng/dL) ≤1500 [1, 6] | Carcinogenicity (male and female mice) | Effect on developing oocytes [2]
1 | CCCCCCCCCCCCC(=O)O[C@H]1CC[C@H]2[C@@H]3CCC4=CC(=O)CC[C@]4(C)[C@H]3CC[C@]12C [(17-β)-3-Oxoandrost-4-en-17-yl tridecanoate] | 50-65% | 0-5% | 0-1% | 100% | 100% | 0-5% | 0-1% | 100% | 100% | 0-5% | 0-1% | 100% | 100% | 20-30% | 60-80% | 0% | – | –
2 | C[C@]12CCC(=O)C=C1CC[C@@H]1[C@@H]2CC[C@]2(C)C(=O)CC[C@@H]12 [androstenedione] | – | – | – | – | – | – | – | – | – | – | – | – | – | – | – | – | carcinogenic | induces abnormalities in morphology and function of developing oocytes
